Counter-ions that a name gives are not always drawn.
Legend:
[1] = tested on: cGMP-dependent protein kinase; assay: Activation of cGMP-dependent protein kinase isolated from lobster tail; format: biochemical; conditions: for Protein Kinase, Ka ' Lobster: ratio of Ka of cGMP to Ka of test compound, lobster tail cGMP-dependent kinase; for ability to activate the cGMP-dependent protein kinase (in words): lobster tail kinase; for specificity between cGMP-dependent and cAMP-dependent protein kinase (in words): lobster tail cGMP-dependent versus bovine brain cAMP-dependent kinase
Description: The new 8-substituted purine cyclic nucleotides were examined for their ability to stimulate both a cAMP-dependent protein kinase isolated from beef brain and a cGMP-dependent protein kinase isolated from lobster tail (see Table II). […]. Acad. Sci. USA 64, 1349, Kuo et al, 1971, J. Biol. Chem. 246,7159) to be mediated by its activation of a protein kinase.
The Ka of cAMP for the cAMP-dependent protein kinase is about the same (see footnote a, Table II) as the Ka of cGMP for the cGMP-dependent protein kinase. Comparison of the Ka ' values (the ratio of Ka of the dependent cyclic nucleotide to the Ka of the test compound) is, therefore, an accurate guide to the type of kinase stimulation seen at a given cyclic nucleotide concentration.
a Ka ' = The ratio of Ka of the dependent cyclic nucleotide (cAMP for bovine brain and cGMP for lobster tail) to the Ka of the test compound. […]

[2] = tested on: cyclic nucleotide phosphodiesterase; assay: Susceptibility to hydrolysis by rabbit kidney cyclic nucleotide phosphodiesterase; format: biochemical; conditions: rabbit kidney enzyme preparation; times the rate of cAMP
Description: All compounds were examined for their susceptibility to hydrolysis by cyclic nucleotide phosphodiesterase. Both cGMP and cIMP were hydrolyzed at approximately one-half the rate of cAMP by a rabbit kidney enzyme preparation generally prepared in the manner described below for rabbit lung enzyme. The new 8-substituted derivatives were not substrates (rate of hydrolysis<0.05 that of the rate of cAMP hydrolysis) within the limits of detection of our assay, with the sole exception of 8-(1-hydroxybutyl)-cGMP (12), which was hydrolyzed at a rate 0.18 times the rate of hydrolysis of cAMP. This finding is in agreement with the general conclusion that 8-substitution of a purine 3',5'-cyclic ribonucleotide greatly reduces the ability of the resulting derivative to serve as a substrate for cyclic nucleotide phosphodiesterase.

[3] = tested on: cAMP-dependent protein kinase; assay: Activation of cAMP-dependent protein kinase isolated from beef brain; format: biochemical, bovine; conditions: for Protein Kinase, Ka ' Bovine: ratio of Ka of cAMP to Ka of test compound, bovine brain cAMP-dependent kinase; for activation of the cAMP-dependent protein kinase (in words): bovine brain kinase
Description: The new 8-substituted purine cyclic nucleotides were examined for their ability to stimulate both a cAMP-dependent protein kinase isolated from beef brain and a cGMP-dependent protein kinase isolated from lobster tail (see Table II).
a Ka ' = The ratio of Ka of the dependent cyclic nucleotide (cAMP for bovine brain and cGMP for lobster tail) to the Ka of the test compound.

[4] = target: cyclic nucleotide phosphodiesterase; assay: Inhibition of cAMP hydrolysis by beef heart cyclic nucleotide phosphodiesterase; format: biochemical; conditions: beef heart enzyme; 50% inhibition of cleavage of cAMP, cAMP = 1.6 × 10^-7 M; read-out: Phosphodiesterase Inhibition, I50 Heart
Description: (§1) Homogenates of rabbit lung and beef heart are made in sucrose-Tris-magnesium buffer and are subjected to centrifugation at low speed to remove nuclei and cell debris. […] The precipitation which forms at 0-50% saturation is collected by centrifugation at 20,000 × g, dissolved in Tris-magnesium buffer, and dialyzed overnight against the same buffer.

[5] = target: cyclic nucleotide phosphodiesterase; assay: Inhibition of cAMP hydrolysis by rabbit lung cyclic nucleotide phosphodiesterase; format: biochemical; conditions: rabbit lung enzyme; 50% inhibition of cleavage of cAMP, cAMP = 1.6 × 10^-7 M; read-out: Phosphodiesterase Inhibition, I50 Lung
Description: as §1

Row | Structure (SMILES) | Protein Kinase, Ka ' Lobster [1] | rate of hydrolysis relative to the rate of cAMP hydrolysis [2] | Protein Kinase, Ka ' Bovine [3] | IC50 [4] | IC50 [5] | ability to activate the cGMP-dependent protein kinase (in words) [1] | specificity between cGMP-dependent and cAMP-dependent protein kinase (in words) [1] | activation of the cAMP-dependent protein kinase (in words) [3]
1 | Nc1nc2c(ncn2[C@@H]2O[C@@H]3COP(=O)(O)O[C@H]3[C@H]2O)c(=O)[nH]1 [Compound 1, guanosine 3',5'-cyclic phosphate, reference compound] | 1.0 | approximately one-half | 0.023 |  |  |  |  | 
2 | Cc1nc2c(=O)[nH]c(N)nc2n1[C@@H]1O[C@@H]2COP(=O)(O)O[C@H]2[C@H]1O [Compound 2, 8-Methylguanosine 3',5'-Cyclic Phosphate] | 0.066 |  | 0.015 | 200 µM | 400 µM |  |  | 
3 | CC(C)c1nc2c(=O)[nH]c(N)nc2n1[C@@H]1O[C@@H]2COP(=O)(O)O[C@H]2[C@H]1O [Compound 3, 8-Isopropylguanosine 3',5'-Cyclic Phosphate] | 0.70 |  | < 0.001 | 100 µM | 330 µM |  |  | 
4 | Nc1nc2c(nc(Cc3ccccc3)n2[C@@H]2O[C@@H]3COP(=O)(O)O[C@H]3[C@H]2O)c(=O)[nH]1 [Compound 4, 8-Benzylguanosine 3',5'-Cyclic Phosphate] | 0.10 |  | < 0.001 | 140 µM | 130 µM |  |  | 
5 | CC(C)(C)Cc1nc2c(=O)[nH]c(N)nc2n1[C@@H]1O[C@@H]2COP(=O)(O)O[C@H]2[C@H]1O [Compound 5, 8-Neopentylguanosine 3',5'-Cyclic Phosphate] | 0.16 |  | < 0.001 | 100 µM | 70 µM |  |  | 
6 | CC(=O)c1nc2c(=O)[nH]c(N)nc2n1[C@@H]1O[C@@H]2COP(=O)(O)O[C@H]2[C@H]1O [Compound 6, 8-Acetylguanosine 3',5' -Cyclic Phosphate] | 0.56 |  | < 0.001 | 170 µM | 70 µM |  |  | 
7 | CCCC(=O)c1nc2c(=O)[nH]c(N)nc2n1[C@@H]1O[C@@H]2COP(=O)(O)O[C@H]2[C@H]1O [Compound 7, 8-Butyrylguanosine 3',,5' -cyclic phosphate] | 0.20 |  | 0.064 | 90 µM | 70 µM |  |  | 
8 | CC(C)C(=O)c1nc2c(=O)[nH]c(N)nc2n1[C@@H]1O[C@@H]2COP(=O)(O)O[C@H]2[C@H]1O [Compound 8, 8-Isobutyrylguanosine 3',5'-Cyclic Phosphate Ammonium Salt] | 0.13 |  | < 0.01 | 11 µM |  |  |  | 
9 | Nc1nc2c(nc(C(=O)c3ccccc3)n2[C@@H]2O[C@@H]3COP(=O)(O)O[C@H]3[C@H]2O)c(=O)[nH]1 [Compound 9, 8-Benzoylguanosine 3',5'-cyclic phosphate] | 0.68 |  | < 0.005 | 50 µM |  |  |  | 
10 | NC(=O)c1nc2c(=O)[nH]c(N)nc2n1[C@@H]1O[C@@H]2COP(=O)(O)O[C@H]2[C@H]1O [Compound 10, 8-Carbamoylguanosine 3',5'-Cyclic Phosphate] | 1.5 |  | < 0.001 | 100 µM | 400 µM | superior to cGMP |  | 
11 | CC(O)c1nc2c(=O)[nH]c(N)nc2n1[C@@H]1O[C@@H]2COP(=O)(O)O[C@H]2[C@H]1O (some centres unmarked) [Compound 11, 8-(1-Hydroxyethyl)guanosine 3',5'-Cyclic Phosphate] | 1.8 |  | < 0.01 | 170 µM | 400 µM | superior to cGMP |  | 
12 | CCCC(O)c1nc2c(=O)[nH]c(N)nc2n1[C@@H]1O[C@@H]2COP(=O)(O)O[C@H]2[C@H]1O (some centres unmarked) [Compound 12, 8-(1-Hydroxybutyl)guanosine 3',5'-Cyclic Phosphate] | 0.62 | 0.18 | < 0.001 | 29 µM | 133 µM |  |  | 
13 | CC(C)C(O)c1nc2c(=O)[nH]c(N)nc2n1[C@@H]1O[C@@H]2COP(=O)(O)O[C@H]2[C@H]1O (some centres unmarked) [Compound 13, 8-(1-Hydroxy-2-methylpropyl)guanosine 3',5'-Cyclic Phosphate] | 0.72 |  | < 0.001 | 38 µM | 180 µM |  |  | 
14 | Nc1nc2c(nc(C(O)c3ccccc3)n2[C@@H]2O[C@@H]3COP(=O)(O)O[C@H]3[C@H]2O)c(=O)[nH]1 (stereo partly drawn) [Compound 14, 8-(α-Hydroxybenzyl)guanosine 3',5'-Cyclic Phosphate] | 2.3 |  | < 0.005 | > 300 µM | 140 µM | superior to cGMP |  | 
15 | CC(=NNC(N)=S)c1nc2c(=O)[nH]c(N)nc2n1[C@@H]1O[C@@H]2COP(=O)(O)O[C@H]2[C@H]1O [Compound 15, 8-Acetylguanosine 3',5'-Cyclic Phosphate Thiosemicarbazone] | 0.052 |  | < 0.005 | 50 µM | 26 µM |  |  | 
16 | CC(=NNC(N)=O)c1nc2c(=O)[nH]c(N)nc2n1[C@@H]1O[C@@H]2COP(=O)(O)O[C@H]2[C@H]1O [Compound 16, 8-Acetylguanosine 3',5'-Cyclic Phosphate Semicarbazone] | 0.031 |  | < 0.005 | 125 µM | 200 µM |  |  | 
17 | CC(=NNC(=O)Nc1ccccc1)c1nc2c(=O)[nH]c(N)nc2n1[C@@H]1O[C@@H]2COP(=O)(O)O[C@H]2[C@H]1O [Compound 17, 8-Acetylguanosine 3',5'-Cyclic Phosphate 4-Phenylsemicarbazone] | 0.11 |  | < 0.01 | 40 µM | 150 µM |  |  | 
18 | CC(=NNc1ccccc1)c1nc2c(=O)[nH]c(N)nc2n1[C@@H]1O[C@@H]2COP(=O)(O)O[C@H]2[C@H]1O [Compound 18, 8-Acetylguanosine 3',5'-Cyclic Phosphate Phenylhydrazone] | 0.44 |  | < 0.005 | 100 µM | 2000 µM |  |  | 
19 | O=c1[nH]cnc2c1ncn2[C@@H]1O[C@@H]2COP(=O)(O)O[C@H]2[C@H]1O [Compound 19, Inosine 3',5'-cyclic phosphate, reference compound] | 0.085 | approximately one-half | 0.59 | 3.9 µM | 100 µM |  | greater activation of the cAMP-dependent kinase | 
20 | CC(=O)c1nc2c(=O)[nH]cnc2n1[C@@H]1O[C@@H]2COP(=O)(O)O[C@H]2[C@H]1O [Compound 20, 8-Acetylinosine 3',5'-Cyclic Phosphate] | 0.0041 |  | 0.022 | 1000 µM | 2000 µM | slight activation | slightly greater specificity for the cAMP-dependent enzyme | slight activation
21 | O=C(c1ccccc1)c1nc2c(=O)[nH]cnc2n1[C@@H]1O[C@@H]2COP(=O)(O)O[C@H]2[C@H]1O [Compound 21, 8-Benzoylinosine 3',5'-Cyclic Phosphate] | 0.011 |  | 0.070 | 70 µM | 400 µM | slight activation | slightly greater specificity for the cAMP-dependent enzyme | slight activation
22 | Cn1c(=O)c2[nH]cnc2n(C)c1=O [theophylline, reference compound] |  |  |  | 100 µM | 200 µM |  |  | 

Source: patent US3968101A, “8-Substituted cyclic nucleotides by free radical alkylation and acylation” (ICN Pharmaceuticals, Inc., priority 1974, dated 1976)
